# Results reported in the pKa sets of Baltruschat and Czodrowski (2020).
row,SMILES,pKa
1,CC(=O)Nc1ccccc1Nc1c2ccccc2nc2ccccc12,7.24
2,CCN(CCN(CC(=O)O)CC(=O)O)CCN(CC(=O)O)CC(=O)O,2.8
3,CN1C=CC(C2NC(C(F)(F)F)=CN2c2ccc(S(N)(=O)=O)cc2)C=C1 (centres undefined),7.58
4,Cn1ccnc1N,8.54
5,O=S(=O)(O)CCc1ccc(Nc2c3ccccc3nc3ccccc23)cc1,7.77
6,CC(=O)N[C@@H](Cc1cc(F)cc(F)c1)[C@H](O)CNC1(c2cc(C(C)(C)C)ncn2)CCCCC1,6.7
7,Cc1ccc(C(=O)N(CCCN)[C@@H](c2oc3cc(Cl)ccc3c(=O)c2Cc2ccccc2)C(C)C)cc1,8.5
8,CN(C)CC(C)(C)CCc1ccc(C(C)(C)C)cc1,9.4
9,COc1cc(NS(C)(=O)=O)ccc1Nc1c2ccccc2nc2cc(C(F)(F)F)ccc12,6.24
10,Cc1nc(N)ncc1CNC(=O)Cn1c(C)ccc(NS(=O)(=O)Cc2ccccc2)c1=O,4.2
11,O=C(O)CCCc1ccc(N(CCCl)CCCl)cc1,5.8
12,COc1cc(NS(C)(=O)=O)ccc1Nc1c2ccccc2nc2cc(F)ccc12,7.05
13,COc1cc(NS(C)(=O)=O)ccc1Nc1c2ccccc2nc2ccccc12,7.43
14,CN(C)CCCCc1ccc(C2COC2)cc1,9.9
15,Oc1nsc2c1CNCC2,9.2
16,Cc1nc2c3c(ccn2c1CC#N)CCC(c1ccccc1)O3 (centres undefined),6
17,CC(C)NCC(O)COc1ccc(CCNC(=O)NC(C)C)cc1 (centres undefined),9.18
18,Cc1ncc[nH]1,7.86
19,CC(C)n1c(/C=C/C(O)CC(O)CC(=O)O)c(-c2ccc(F)cc2)c2ccccc21 (centres undefined),4.31
20,Cc1ccc(NS(=O)(=O)Cc2ccccc2)c(=O)n1CC(=O)NCc1cnc(N)nc1,3.9
21,COC(=O)c1ccc(Nc2c3ccccc3nc3ccccc23)cc1,6.21
22,CCc1ccccc1Nc1c2ccccc2nc2ccccc12,7.68
23,COC(=O)Nc1ccc(Nc2c3ccccc3nc3ccccc23)cc1,7.64

row,SMILES,pKa
1,Cc1cnc(NCCc2ccccc2)c(=O)n1CC(=O)NCc1ccc(C(=N)N)s1,10.3
2,CN(C)CCC=C1c2ccccc2CCc2ccccc21,9.4
3,FC1CCNCC1,9.4
4,Cc1ccccc1N=C1NCCN1,10.2
5,COc1cc(NS(C)(=O)=O)ccc1Nc1c2ccccc2nc2ccc(I)cc12,6.6
6,NC(=O)Cc1ccc(Nc2c3ccccc3nc3ccccc23)cc1,7.43
7,CCS(=O)(=O)Nc1ccc(Nc2c3ccccc3nc3ccccc23)cc1,7.19
8,CN1CCN(CCCN2c3ccccc3Sc3ccc(Cl)cc32)CC1,8.1
9,CN1CCN(Cc2ccc(S(=O)(=O)c3csc(S(N)(=O)=O)c3)cc2)CC1.Cl,7.4
10,NCC(F)F,7.3
11,OB(O)c1ccccc1,8.8
12,CCOC(=O)c1ccc(OS(N)(=O)=O)cc1,8.22
13,CNC(=O)Nc1ccc(Nc2c3ccccc3nc3ccccc23)cc1,7.77
14,CCCCCS(=O)(=O)NCCCc1ccc(OCCOC)cc1Oc1ncc(C(F)(F)F)cc1Cl,17.5
15,CN1CC(C)(c2cccc(NC(=O)c3ccc(Cl)cn3)c2)N=C(N)C1=O (centres undefined),7.6
16,Cc1nc(N)ncc1CNC(=O)Cn1c(C)ccc(NS(=O)(=O)Cc2cccc3c2OCCO3)c1=O,4.2
17,CC(C)NC1=NS(=O)(=O)c2cc(Cl)ccc2N1,9.51
18,CN(C)CCCC(C)(C)c1ccc(C(C)(C)C)cc1,9.8
19,FC1(F)CCCNC1,7.4
20,NC(N)=Nc1nc(CSCC/C(N)=N/S(N)(=O)=O)cs1,7.1
21,COc1cc(NS(C)(=O)=O)ccc1Nc1c2ccccc2nc2cc(C(C)C)ccc12,7.66
22,Oc1cc(C2CCNCC2)sn1,10.7
23,COc1cc(Nc2c3ccccc3nc3ccccc23)ccc1NS(C)(=O)=O,7.03

row,SMILES,pKa
1,Cc1ccc(N=C2NCCN2)c(Cl)c1,9.41
2,Clc1ccc(N=C2NCCN2)c(Cl)c1,8.73
3,NC(=O)CF,22.3
4,Cl.Fc1ccc2c(c1)N(CCCN1CCCCC1)c1cc(F)ccc1CC2,7.6
5,Cc1nc2c(OCc3ccccc3)cccn2c1N,6.81
6,Cc1cccc(Cl)c1N=C1NCCN1,9.4
7,CN1C=CC(C2NC(C(Cl)(Cl)Cl)=CN2c2ccc(S(N)(=O)=O)cc2)C=C1 (centres undefined),7.89
8,CS(=O)(=O)Nc1ccc(Nc2c3ccccc3nc3ncccc23)cc1,5.93
9,CCCCCCOC(=O)NCCCC(C)Nc1cc(OC)cc2cccnc12 (centres undefined),16.2
10,CS(=O)(=O)Nc1ccc(Nc2c3ccccc3nc3c(C(N)=O)cccc23)cc1,6.12
11,CNCC[C@@H](Oc1ccccc1C)c1ccccc1,10.1
12,COC(=O)c1ccccc1Nc1c2ccccc2nc2ccccc12,6.3
13,Fc1ccc(Nc2c3ccccc3nc3ccccc23)cc1,7.5
14,NC(N)=S,21.1
15,Cl.Fc1ccc2c(c1)N(CCCN1CCOCC1)c1cc(F)ccc1CC2,7.6
16,COc1ccc(Cl)cc1C(=O)NCCc1ccc(S(=O)(=O)NC(=O)NC2CCCCC2)cc1,5.3
17,COc1ccc2c(Nc3ccc(NS(C)(=O)=O)cc3OC)c3ccccc3nc2c1,7.81
18,COc1cc(NS(C)(=O)=O)ccc1Nc1c2ccccc2nc2c(F)cccc12,6.33
19,CN1CCCC(n2nc(Cc3ccc(Cl)cc3)c3ccccc3c2=O)CC1 (centres undefined),9.54
20,CN(C)CCNC(=O)c1cccc2c(N)c3ccccc3nc12,8.3
21,CCOc1cccc2c(Nc3ccc(NS(C)(=O)=O)cc3OC)c3ccccc3nc12,7.37
22,Cc1c2ccccc2nc2c(C(O)=NCCN(C)C)cccc12,4.34
23,Cc1cc(C)c(N=C2NCCN2)c(Cl)c1,9.59

row,SMILES,pKa
1,c1nnn[nH]1,-3
2,c1ccc(-c2ncc[nH]2)cc1,6.48
3,COC(=O)c1ccc(OS(N)(=O)=O)cc1,8.28
4,COc1cc(NS(C)(=O)=O)ccc1Nc1c2ccccc2nc2c(-c3ccccc3)cccc12,7.02
5,CCNc1ccc(Nc2c3ccccc3nc3ccccc23)cc1,8.3
6,CC(C)NCC(O)COc1ccc(COCCOC(C)C)cc1 (centres undefined),9.57
7,Cc1cnc(NCCc2ccccc2)c(=O)n1CC(=O)NC[C@@H]1CNC(N)=N[C@@H]1C,14
8,CS(=O)(=O)Nc1ccc(Nc2c3ccccc3nc3cc(N)ccc23)cc1,9.8
9,NCCC(F)(F)F,8.7
10,CC(C)(C)NCC(O)c1cc(O)cc(O)c1 (centres undefined),8.7
11,O=P(O)(O)CCc1ccccc1,2.34
12,Clc1ncc[nH]1,3.55
13,CCCCNC(=O)NS(=O)(=O)c1ccc(C)cc1,5.3
14,CN(C)CCCNc1c2ccccc2nc2cccc([N+](=O)[O-])c12,6.21
15,CS(=O)(=O)Nc1ccc(Nc2c3ccccc3nc3ccccc23)c(N)c1,7.65
16,CC1=CN(c2ccc(S(N)(=O)=O)cc2)C(C2C=CN(C)C=C2)N1 (centres undefined),7.26
17,CS(=O)(=O)Nc1ccccc1Nc1c2ccccc2nc2ccccc12,6.86
18,Cc1ccc(Nc2c3ccccc3nc3ccccc23)cc1,7.72
19,CN(C)CCNC1=Nc2cccc3cccc(c23)N1,6
20,O=C1Nc2ccc(Cl)cc2C1(c1c[nH]c2ccccc12)c1c[nH]c2ccccc12,-6.84
